Test results as given in US20240132431A1, “METHOD FOR ALKYLATING ACIDIC FUNCTIONAL GROUP” (Chugai Seiyaku Kabushiki Kaisha, priority 2021, published 2024).
Read-outs that look alike come from different tables or passages of the source.

Columns and labels:
[1] = molecular target: T1, Bcl-2 protein (Recombinant Human Bcl-2 Protein) (Homo sapiens, UniProt P10415); assay: Binding evaluation of mixture library compounds to Bcl-2 using AS-MS (affinity selection mass spectrometry); conditions: for ASMS ratio (%) n = 1: replicate n = 1; for ASMS ratio (%) n = 1 / ASMS ratio (%) n = 2: ASMS Ratio(%)=(A−C)/B×100; for ASMS ratio (%) n = 2: replicate n = 2
T1 construct: purchased Novus NBP2-34889
T1 sequence (P10415 whole entry): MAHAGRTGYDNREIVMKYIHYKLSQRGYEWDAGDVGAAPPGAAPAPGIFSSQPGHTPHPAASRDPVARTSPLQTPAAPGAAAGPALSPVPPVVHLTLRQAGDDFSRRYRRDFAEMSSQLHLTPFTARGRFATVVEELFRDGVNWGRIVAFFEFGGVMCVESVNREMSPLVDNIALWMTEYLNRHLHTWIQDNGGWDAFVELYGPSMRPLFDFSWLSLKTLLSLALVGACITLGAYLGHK
In short: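 Readout is ASMS Ratio (%), (A−C)/B×100, from reversed-phase LC/MS of SEC-passed extracts, with protein-free unfiltered standard (B) and protein-free SEC blank (C). Recombinant human Bcl-2 at 20 μM final met ~1200 pooled compounds at […] each for 1 h, 23° C., dark, in Tris-HCl pH 7.4 buffer.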

human Bcl-2 protein = molecular target: T2, human Bcl-2 protein (Homo sapiens, UniProt P10415); assay: Binding evaluation of compounds to Bcl-2 by surface plasmon resonance (SPR); conditions: for equilibrium dissociation constant KD compared to compound B2Q045-01: binding to Bcl-2
T2 construct: purchased Novus Biologicals
T2 sequence (P10415 whole entry): as above
Description: In order to analyze the binding affinity of the compounds shown in [Table AK-O1] and synthesized in Example 8 to Bcl-2, the surface plasmon resonance method was used. Biacore T200 (GE Healthcare) was used as the apparatus, and HBS (10 mM HEPES-NaOH, 150 mM NaCl, pH 7.4) to which 1 mM DTT, 3 mM EDTA, 0.01% Tween 20, and 4% DMSO had been added was used as the running buffer. The human Bcl-2 protein (Novus Biologicals) was biotinylated using EZ-Link Sulfo-NHS-LC-LC-biotin (Thermofisher scientific) and immobilized on the surface of Sensor Chip SA (GE Healthcare). Thereafter, compound solutions of multiple concentrations and the running buffer (blank) were added to the Bcl-2 immobilized surface to obtain the binding response of the compounds. The measurement was carried out at 15° C.

[2] = first value in parentheses, (A−C)/B×100, 1200-compound mixture, Bcl-2 20 μM
[3] = second value in parentheses, (A−C)/B×100, 1200-compound mixture, Bcl-2 20 μM
[4] = binding to Bcl-2, compounds evaluated before library synthesis, read-out: KD
[5] = Biacore T200, 15° C., compounds synthesized before performing library synthesis
[6] = Biacore T200, biotinylated human Bcl-2 immobilized on Sensor Chip SA, 15° C., compounds found by AS-MS evaluation of synthesized library
[7] = Biacore T200, biotinylated human Bcl-2 immobilized on Sensor Chip SA, 15° C., compounds found by AS-MS evaluation of synthesized library, read-out: Equilibrium dissociation constant KD
[8] = AS-MS on the mixture of 1200 library compounds
[9] = AS-MS, mixture of 1200 compounds, Bcl-2

CCOc1cncc(-c2ccccc2CN2CCN(c3ccc(C(=O)NS(=O)(=O)c4ccc(NCCSc5ccccc5)c([N+](=O)[O-])c4)cc3)CC2)c1 [B2Q046-01, 4-[4-[[2-(5-ethoxypyridin-3-yl)phenyl]methyl]piperazin-1-yl]-N-[3-nitro-4-(2-phenylsulfanylethylamino)phenyl]sulfonylbenzamide]
ASMS ratio (%) n = 1 ([1]; AS-MS, mixture library, Bcl-2): 20.3% | ASMS ratio (%) n = 2 ([1]; AS-MS, mixture library, Bcl-2): 20.5% | ASMS ratio (%) [1, 2]: 20.3% | ASMS ratio (%) [1, 3]: 20.5% | Kd (human Bcl-2 protein; [4]): 8.1 µM

CCOc1cccc(-c2ccccc2CN2CCN(c3ccc(C(=O)NS(=O)(=O)c4ccc(NCCSc5ccccc5)c([N+](=O)[O-])c4)cc3)CC2)c1 [B2Q045-01, 4-[4-[[2-(3-ethoxyphenyl)phenyl]methyl]piperazin-1-yl]-N-[3-nitro-4-(2-phenylsulfanylethylamino)phenyl]sulfonylbenzamide]
ASMS ratio (%) n = 1 ([1]; AS-MS, mixture library, Bcl-2): 49.9% | ASMS ratio (%) n = 2 ([1]; AS-MS, mixture library, Bcl-2): 49.9% | ASMS ratio (%) [1, 2]: 49.9% | ASMS ratio (%) [1, 3]: 49.9% | Kd (human Bcl-2 protein; [4]): 1.2 µM

CCOc1cncc(-c2ccccc2CN2CCN(c3ccc(C(=O)NS(=O)(=O)c4ccc(NCCSc5ccccc5)c(C(F)(F)F)c4)cc3)CC2)c1 [B2R046-01, 4-[4-[[2-(5-Ethoxypyridin-3-yl)phenyl]methyl]piperazin-1-yl]-N-[4-(2-phenylsulfanylethylamino)-3-(trifluoromethyl)phenyl]sulfonylbenzamide]
ASMS ratio (%) ([1]; n = 1): −0.2% | ASMS ratio (%) ([1]; n = 2): 0.0% | Equilibrium dissociation constant KD (human Bcl-2 protein; [5]): Bound | Kd (human Bcl-2 protein; [4]): > 20 µM

CCOc1cncc(-c2ccc(C(C)N3CCN(c4ccc(C(=O)NS(=O)(=O)c5ccc(NCCSc6ccccc6)c([N+](=O)[O-])c5)cc4)CC3)cc2)c1 (stereo not drawn) [B2Q098-01, 4-[4-[1-[4-(5-ethoxypyridin-3-yl)phenyl]ethyl]piperazin-1-yl]-N-[3-nitro-4-(2-phenylsulfanylethylamino)phenyl]sulfonylbenzamide]
ASMS ratio (%) n = 1 ([1]; AS-MS, mixture library, Bcl-2): 61.6% | ASMS ratio (%) n = 2 ([1]; AS-MS, mixture library, Bcl-2): 90.8% | ASMS ratio (%) [1, 2]: 61.6% | ASMS ratio (%) [1, 3]: 90.8% | Equilibrium dissociation constant KD (human Bcl-2 protein; [6]): Binding not observed

CCOc1cncc(-c2ccc(CN3CCN(c4ccc(C(=O)NS(=O)(=O)c5ccc(NCCSc6ccccc6)c([N+](=O)[O-])c5)cc4)CC3)cc2C)c1 [B2Q048-01, 4-[4-[[4-(5-ethoxypyridin-3-yl)-3-methylphenyl]methyl]piperazin-1-yl]-N-[3-nitro-4-(2-phenylsulfanylethylamino)phenyl]sulfonylbenzamide]
ASMS ratio (%) n = 1 ([1]; AS-MS, mixture library, Bcl-2): 61.6% | ASMS ratio (%) n = 2 ([1]; AS-MS, mixture library, Bcl-2): 90.8% | ASMS ratio (%) [1, 2]: 61.6% | ASMS ratio (%) [1, 3]: 90.8% | Kd (human Bcl-2 protein; [7]): 0.48 µM | equilibrium dissociation constant KD compared to compound B2Q045-01 (human Bcl-2 protein): smaller equilibrium dissociation constants KD

CCOc1cccc(-c2ccc(CN3CCN(c4ccc(C(=O)N(C)CC56CC7CC(CC(C7)C5)C6)nn4)CC3)cc2C)c1 [B3A073-01, N-(1-adamantylmethyl)-6-[4-[[4-(3-ethoxyphenyl)-3-methylphenyl]methyl]piperazin-1-yl]-N-methylpyridazine-3-carboxamide]
ASMS ratio (%) n = 1 [1, 8]: 31.3% | ASMS ratio (%) n = 2 [1, 8]: 28.6% | ASMS ratio (%) [1, 2]: 31.3% | ASMS ratio (%) [1, 3]: 28.6% | Equilibrium dissociation constant KD (human Bcl-2 protein; [6]): Binding not observed

CCOc1cccc(-c2ccc(CN3CCN(c4ccc(C(=O)NCC56CC7CC(CC(C7)C5)C6)nn4)CC3)c(CC)c2)c1 [B1A075-01, N-(1-adamantylmethyl)-6-[4-[[4-(3-ethoxyphenyl)-2-ethylphenyl]methyl]piperazin-1-yl]pyridazine-3-carboxamide]
ASMS ratio (%) n = 1 [1, 9]: 31.3% | ASMS ratio (%) n = 2 [1, 9]: 28.6% | ASMS ratio (%) [1, 2]: 31.3% | ASMS ratio (%) [1, 3]: 28.6% | Equilibrium dissociation constant KD (human Bcl-2 protein; [6]): Binding not observed

CCOc1cncc(-c2ccc(CN3CCN(c4ccc(C(=O)NS(=O)(=O)c5ccc(NCCSc6ccccc6)c([N+](=O)[O-])c5)cc4)CC3)c3ccccc23)c1 [B2Q066-01, 4-[4-[[4-(5-ethoxypyridin-3-yl)naphthalen-1-yl]methyl]piperazin-1-yl]-N-[3-nitro-4-(2-phenylsulfanylethylamino)phenyl]sulfonylbenzamide]
ASMS ratio (%) n = 1 ([1]; AS-MS, mixture library, Bcl-2): 40.7% | ASMS ratio (%) n = 2 ([1]; AS-MS, mixture library, Bcl-2): 36.9% | ASMS ratio (%) [1, 2]: 40.7% | ASMS ratio (%) [1, 3]: 36.9% | Kd (human Bcl-2 protein; [7]): 0.95 µM

CCOc1cncc(-c2ccc(CN3CCN(c4ccc(C(=O)NS(=O)(=O)c5ccc(NCCSc6ccccc6)c(C(F)(F)F)c5)nn4)CC3)cc2C)c1 [B2R074-01, 6-[4-[[4-(5-ethoxypyridin-3-yl)-3-methylphenyl]methyl]piperazin-1-yl]-N-[4-(2-phenylsulfanylethylamino)-3-(trifluoromethyl)phenyl]sulfonylpyridazine-3-carboxamide]
ASMS ratio (%) [1, 2]: 22.4% | ASMS ratio (%) ([1]; n = 1): 22.4% | ASMS ratio (%) ([1]; n = 2): 25.4% | ASMS ratio (%) [1, 3]: 25.4% | Equilibrium dissociation constant KD (human Bcl-2 protein; [6]): Binding not observed

CCOc1cncc(-c2ccccc2CCC(=O)N2CCN(c3ccc(C(=O)NS(=O)(=O)c4ccc(NCCSc5ccccc5)c([N+](=O)[O-])c4)nn3)CC2)c1 [B2Q012-01, 6-[4-[3-[2-(5-ethoxypyridin-3-yl)phenyl]propanoyl]piperazin-1-yl]-N-[3-nitro-4-(2-phenylsulfanylethylamino)phenyl]sulfonylpyridazine-3-carboxamide]
ASMS ratio (%) n = 1 ([1]; AS-MS, mixture library, Bcl-2): 21.4% | ASMS ratio (%) n = 2 ([1]; AS-MS, mixture library, Bcl-2): 22.5% | ASMS ratio (%) [1, 2]: 21.4% | ASMS ratio (%) [1, 3]: 22.5% | Equilibrium dissociation constant KD (human Bcl-2 protein; [6]): Bound

CCOc1cccc(-c2ccc(CN3CCN(c4ccc(C(=O)NS(=O)(=O)c5ccc(NCCSc6ccccc6)c([N+](=O)[O-])c5)cc4)CC3)c(OC)c2)c1 [B2Q053-01, 4-[4-[[4-(3-ethoxyphenyl)-2-methoxyphenyl]methyl]piperazin-1-yl]-N-[3-nitro-4-(2-phenylsulfanylethylamino)phenyl]sulfonylbenzamide]
ASMS ratio (%) n = 1 ([1]; AS-MS, mixture library, Bcl-2): 22.4% | ASMS ratio (%) n = 2 ([1]; AS-MS, mixture library, Bcl-2): 15.5% | ASMS ratio (%) [1, 2]: 22.4% | ASMS ratio (%) [1, 3]: 15.5% | Equilibrium dissociation constant KD (human Bcl-2 protein; [6]): Binding not observed

CCOc1cncc(-c2ccc(CN3CCN(c4ccc(C(=O)NS(=O)(=O)c5ccc(NCCSc6ccccc6)c([N+](=O)[O-])c5)cc4)CC3)c(OC)c2)c1 [B2Q054-01, 4-[4-[[4-(5-ethoxypyridin-3-yl)-2-methoxyphenyl]methyl]piperazin-1-yl]-N-[3-nitro-4-(2-phenylsulfanylethylamino)phenyl]sulfonylbenzamide]
ASMS ratio (%) n = 1 ([1]; AS-MS, mixture library, Bcl-2): 44.1% | ASMS ratio (%) n = 2 ([1]; AS-MS, mixture library, Bcl-2): 65.0% | ASMS ratio (%) [1, 2]: 44.1% | ASMS ratio (%) [1, 3]: 65.0% | Kd (human Bcl-2 protein; [7]): 1.27 µM

CCOc1cccc(-c2ccccc2CN2CCN(c3ccc(C(=O)NS(=O)(=O)c4ccc(NCCSc5ccccc5)c(C(F)(F)F)c4)cc3)CC2)c1 [B2R045-01, 4-[4-[[2-(3-ethoxyphenyl)phenyl]methyl]piperazin-1-yl]-N-[4-(2-phenylsulfanylethylamino)-3-(trifluoromethyl)phenyl]sulfonylbenzamide]
ASMS ratio (%) ([1]; n = 1): 4.8% | ASMS ratio (%) ([1]; n = 2): −3.4% | Equilibrium dissociation constant KD (human Bcl-2 protein; [5]): Bound | Kd (human Bcl-2 protein; [4]): > 20 µM

CCOc1cccc(-c2ccc(C(C)N3CCN(c4ccc(C(=O)NS(=O)(=O)c5ccc(NCCSc6ccccc6)c([N+](=O)[O-])c5)cc4)CC3)cc2)c1 (stereo not drawn) [B2Q097-01, 4-[4-[1-[4-(3-ethoxyphenyl)phenyl]ethyl]piperazin-1-yl]-N-[3-nitro-4-(2-phenylsulfanylethylamino)phenyl]sulfonylbenzamide]
ASMS ratio (%) n = 1 ([1]; AS-MS, mixture library, Bcl-2): 142.5% | ASMS ratio (%) n = 2 ([1]; AS-MS, mixture library, Bcl-2): 326.4% | ASMS ratio (%) [1, 2]: 142.5% | ASMS ratio (%) [1, 3]: 326.4% | Equilibrium dissociation constant KD (human Bcl-2 protein; [6]): Binding not observed

CCOc1cccc(-c2ccc(CN3CCN(c4ccc(C(=O)NS(=O)(=O)c5ccc(NCCSc6ccccc6)c([N+](=O)[O-])c5)cc4)CC3)cc2C)c1 [B2Q047-01, 4-[4-[[4-(3-ethoxyphenyl)-3-methylphenyl]methyl]piperazin-1-yl]-N-[3-nitro-4-(2-phenylsulfanylethylamino)phenyl]sulfonylbenzamide]
ASMS ratio (%) n = 1 ([1]; AS-MS, mixture library, Bcl-2): 142.5% | ASMS ratio (%) n = 2 ([1]; AS-MS, mixture library, Bcl-2): 326.4% | ASMS ratio (%) [1, 2]: 142.5% | ASMS ratio (%) [1, 3]: 326.4% | Kd (human Bcl-2 protein; [7]): 0.7 µM | equilibrium dissociation constant KD compared to compound B2Q045-01 (human Bcl-2 protein): smaller equilibrium dissociation constants KD
